Assay results published in ChEMBL document CHEMBL5500342, “Rational molecular design converting fascaplysin derivatives to potent broad-spectrum inhibitors against bacterial pathogens via targeting FtsZ” (Eur J Med Chem, 2024).
Converted amounts (≈) assume the structure as drawn.

What was measured:
Salmonella enteritidis = experiment: Antibacterial activity against Salmonella enteritidis BNCC281091 assessed as inhibition of bacterial growth incubated for 18 hrs by CLSI protocol based microbroth dilution method; assay type: functional, Salmonella enterica subsp. enterica serovar Enteritidis; conditions: Salmonella enterica
Bacillus subtilis = experiment: Antibacterial activity against Bacillus subtilis BNCC336690 assessed as inhibition of bacterial growth incubated for 18 hrs by CLSI protocol based microbroth dilution method; assay type: functional
Streptococcus pneumoniae = experiment: Antibacterial activity against Streptococcus pneumoniae ATCC49619 assessed as inhibition of bacterial growth incubated for 18 hrs by CLSI protocol based microbroth dilution method; assay type: functional
Staphylococcus aureus [1] = experiment: Antibacterial activity against methicillin-resistant Staphylococcus aureus ATCC43300; assay type: functional
Escherichia coli [2] = experiment: Antibacterial activity against penicillin-susceptible Escherichia coli ATCC25922; assay type: functional
Pseudomonas aeruginosa = experiment: Antibacterial activity against Pseudomonas aeruginosa BNCC337940 assessed as inhibition of bacterial growth incubated for 18 hrs by CLSI protocol based microbroth dilution method; assay type: functional
Escherichia coli [3] = experiment: Bactericidal activity against penicillin-susceptible Escherichia coli ATCC25922 incubated for 24 hrs by CLSI protocol based microbroth dilution method; assay type: functional
Staphylococcus aureus [4] = experiment: Selectivity ratio of MBC for bactericidal activity against methicillin-resistant Staphylococcus aureus ATCC43300 to MIC for antibacterial activity against methicillin-resistant Staphylococcus aureus ATCC43300; assay type: functional
[5] = Selectivity ratio of MBC for bactericidal activity against penicillin-susceptible Escherichia coli ATCC25922 to MIC for antibacterial activity against penicillin-susceptible Escherichia coli ATCC25922; assay type: functional
Staphylococcus aureus [6] = experiment: Antibacterial activity against methicillin-resistant Staphylococcus aureus ATCC43300 assessed as inhibition of bacterial growth incubated for 18 hrs by CLSI protocol based microbroth dilution method; assay type: functional
Escherichia coli [7] = experiment: Antibacterial activity against penicillin-susceptible Escherichia coli ATCC25922 assessed as inhibition of bacterial growth incubated for 18 hrs by CLSI protocol based microbroth dilution method; assay type: functional
Staphylococcus aureus [8] = experiment: Bactericidal activity against methicillin-resistant Staphylococcus aureus ATCC43300 incubated for 24 hrs by CLSI protocol based microbroth dilution method; assay type: functional

**Q.** For O=C1c2ccccc2-[n+]2ccc3c([nH]c4ccc(-c5ccc(F)cc5)cc43)c21.[Cl-], which MIC (Salmonella enteritidis) is on record?
**A.** > 200 µg/mL

**Q.** What about the MIC (Bacillus subtilis) of the same compound?
**A.** 0.195 µg/mL

**Q.** And the MIC (Streptococcus pneumoniae)?
**A.** 0.195 µg/mL

**Q.** And the MIC (Staphylococcus aureus [1])?
**A.** 1.56 µg/mL

**Q.** What about the MIC (Escherichia coli [2]) of the same compound?
**A.** 6.25 µg/mL

**Q.** And the MIC (Pseudomonas aeruginosa)?
**A.** > 200 µg/mL

**Q.** For O=C1c2ccccc2-[n+]2ccc3c([nH]c4ccc(-c5ccc(F)cc5F)cc43)c21.[Cl-], which MIC (Salmonella enteritidis) is on record?
**A.** > 200 µg/mL

**Q.** What about the MIC (Bacillus subtilis) of the same compound?
**A.** 0.195 µg/mL

**Q.** What about the MIC (Streptococcus pneumoniae) of the same compound?
**A.** 0.195 µg/mL

**Q.** And the MIC (Staphylococcus aureus [1])?
**A.** 0.195 µg/mL

**Q.** And the MIC (Escherichia coli [2])?
**A.** 1.56 µg/mL

**Q.** What about the MIC (Pseudomonas aeruginosa) of the same compound?
**A.** > 200 µg/mL

**Q.** Which results are given for O=C1c2ccccc2-[n+]2ccc3c([nH]c4ccccc43)c21 [FASCAPLYSIN]?
**A.** MBC (Escherichia coli [3]): 25 µg/mL; Selectivity ratio (Staphylococcus aureus [4]): 2; Selectivity ratio [5]: 2; MIC (Staphylococcus aureus [6]): 0.78 µg/mL; MIC (Escherichia coli [7]): 12.5 µg/mL; MBC (Staphylococcus aureus [8]): 1.56 µg/mL

**Q.** Which MIC (Salmonella enteritidis) does the source give for CCc1ccc(-c2ccc3[nH]c4c5[n+](ccc4c3c2)-c2ccccc2C5=O)cc1.[Cl-] here?
**A.** > 200 µg/mL

**Q.** What about the MIC (Bacillus subtilis) of the same compound?
**A.** 0.195 µg/mL

**Q.** What about the MIC (Streptococcus pneumoniae) of the same compound?
**A.** 0.195 µg/mL

**Q.** And the MIC (Staphylococcus aureus [6])?
**A.** 1.56 µg/mL

**Q.** And the MIC (Escherichia coli [7])?
**A.** > 200 µg/mL

**Q.** And the MIC (Pseudomonas aeruginosa)?
**A.** > 200 µg/mL

**Q.** Which MIC (Salmonella enteritidis) does the source give for O=C1c2ccccc2-[n+]2ccc3c([nH]c4ccc(-c5ccc(C(F)(F)F)cc5)cc43)c21.[Cl-] here?
**A.** > 200 µg/mL

**Q.** What about the MIC (Bacillus subtilis) of the same compound?
**A.** 0.195 µg/mL

**Q.** And the MIC (Streptococcus pneumoniae)?
**A.** 1.56 µg/mL

**Q.** What about the MIC (Staphylococcus aureus [1]) of the same compound?
**A.** 0.39 µg/mL

**Q.** And the MIC (Escherichia coli [2])?
**A.** 1.56 µg/mL

**Q.** And the MIC (Pseudomonas aeruginosa)?
**A.** > 200 µg/mL

**Q.** For CCCCc1ccc(-c2ccc3[nH]c4c5[n+](ccc4c3c2)-c2ccccc2C5=O)cc1.[Cl-], which MIC (Salmonella enteritidis) is on record?
**A.** > 200 µg/mL

**Q.** And the MIC (Bacillus subtilis)?
**A.** 1.56 µg/mL

**Q.** And the MIC (Streptococcus pneumoniae)?
**A.** 0.78 µg/mL

**Q.** What about the MIC (Staphylococcus aureus [6]) of the same compound?
**A.** 6.25 µg/mL

**Q.** And the MIC (Escherichia coli [7])?
**A.** > 200 µg/mL

**Q.** What about the MIC (Pseudomonas aeruginosa) of the same compound?
**A.** > 200 µg/mL

**Q.** Which MIC (Salmonella enteritidis) does the source give for Cc1cccc(-c2ccc3[nH]c4c5[n+](ccc4c3c2)-c2ccccc2C5=O)c1.[Cl-] here?
**A.** > 200 µg/mL

**Q.** What about the MIC (Bacillus subtilis) of the same compound?
**A.** 0.195 µg/mL

**Q.** What about the MIC (Streptococcus pneumoniae) of the same compound?
**A.** 0.195 µg/mL

**Q.** What about the MIC (Staphylococcus aureus [6]) of the same compound?
**A.** 0.39 µg/mL

**Q.** What about the MIC (Escherichia coli [7]) of the same compound?
**A.** > 200 µg/mL

**Q.** What about the MIC (Pseudomonas aeruginosa) of the same compound?
**A.** > 200 µg/mL

**Q.** Which results are given for O=C1c2ccccc2-[n+]2ccc3c([nH]c4ccc(-c5cc(F)cc(F)c5)cc43)c21.[Cl-]?
**A.** MIC (Salmonella enteritidis): > 200 µg/mL; MIC (Bacillus subtilis): 0.195 µg/mL; MIC (Streptococcus pneumoniae): 0.195 µg/mL; MIC (Staphylococcus aureus [6]): 3.12 µg/mL; MIC (Escherichia coli [7]): 12.5 µg/mL; MIC (Pseudomonas aeruginosa): > 200 µg/mL

**Q.** For O=C1c2ccccc2-[n+]2ccc3c([nH]c4ccc(-c5ccc(Cl)cc5)cc43)c21.[Cl-], which MIC (Salmonella enteritidis) is on record?
**A.** > 200 µg/mL

**Q.** What about the MIC (Bacillus subtilis) of the same compound?
**A.** 0.195 µg/mL

**Q.** And the MIC (Streptococcus pneumoniae)?
**A.** 0.39 µg/mL

**Q.** What about the MIC (Staphylococcus aureus [6]) of the same compound?
**A.** 1.56 µg/mL

**Q.** And the MIC (Escherichia coli [7])?
**A.** > 200 µg/mL

**Q.** And the MIC (Pseudomonas aeruginosa)?
**A.** > 200 µg/mL

**Q.** What does the source list for O=C1c2ccccc2-[n+]2ccc3c([nH]c4ccc(-c5ccccc5)cc43)c21.[Cl-]?
**A.** MIC (Salmonella enteritidis): > 200 µg/mL; MIC (Bacillus subtilis): 0.195 µg/mL; MIC (Streptococcus pneumoniae): 0.195 µg/mL; MIC (Staphylococcus aureus [1]): 0.78 µg/mL; MIC (Escherichia coli [2]): 3.12 µg/mL; MIC (Pseudomonas aeruginosa): 200 µg/mL

**Q.** What does the source list for Cc1ccc(-c2ccc3[nH]c4c5[n+](ccc4c3c2)-c2ccccc2C5=O)cc1.[Cl-]?
**A.** MIC (Salmonella enteritidis): > 200 µg/mL; MIC (Bacillus subtilis): 0.195 µg/mL; MIC (Streptococcus pneumoniae): 0.195 µg/mL; MIC (Staphylococcus aureus [1]): 0.39 µg/mL; MIC (Escherichia coli [2]): 12.5 µg/mL; MIC (Pseudomonas aeruginosa): > 200 µg/mL

**Q.** Which results are given for O=C1c2ccccc2-[n+]2ccc3c([nH]c4ccc(-c5cccc(Cl)c5)cc43)c21.[Cl-]?
**A.** MIC (Salmonella enteritidis): > 200 µg/mL; MIC (Bacillus subtilis): 0.195 µg/mL; MIC (Streptococcus pneumoniae): 0.195 µg/mL; MIC (Staphylococcus aureus [6]): 0.39 µg/mL; MIC (Escherichia coli [7]): 25 µg/mL; MIC (Pseudomonas aeruginosa): > 200 µg/mL

**Q.** With Cc1ccc(-c2ccc3[nH]c4c5[n+](ccc4c3c2)-c2ccccc2C5=O)cc1C.[Cl-] as the compound, how does the MIC (Salmonella enteritidis) read?
**A.** > 200 µg/mL

**Q.** And the MIC (Bacillus subtilis)?
**A.** 0.195 µg/mL

**Q.** What about the MIC (Streptococcus pneumoniae) of the same compound?
**A.** 0.78 µg/mL

**Q.** And the MIC (Staphylococcus aureus [6])?
**A.** 6.25 µg/mL

**Q.** What about the MIC (Escherichia coli [7]) of the same compound?
**A.** > 200 µg/mL

**Q.** And the MIC (Pseudomonas aeruginosa)?
**A.** > 200 µg/mL

**Q.** Which MIC (Bacillus subtilis) does the source give for CN[C@H](CC(C)C)C(=O)N[C@H]1C(=O)N[C@@H](CC(N)=O)C(=O)N[C@H]2C(=O)N[C@H]3C(=O)N[C@H](C(=O)N[C@H](C(=O)O)c4cc(O)cc(O)c4-c4cc3ccc4O)[C@H](O)c3ccc(c(Cl)c3)Oc3cc2cc(c3O[C@@H]2O[C@H](CO)[C@@H](O)[C@H](O)[C@H]2O[C@H]2C[C@](C)(N)[C@H](O)[C@H](C)O2)Oc2ccc(cc2Cl)[C@H]1O [VANCOMYCIN] here?
**A.** 0.39 µg/mL (≈ 0.269 µM)

**Q.** And the MBC (Escherichia coli [3])?
**A.** 3.12 µg/mL (≈ 2.16 µM)

**Q.** And the MIC (Streptococcus pneumoniae)?
**A.** 1.56 µg/mL (≈ 1.08 µM)

**Q.** What about the MBC (Staphylococcus aureus [8]) of the same compound?
**A.** 1 µg/mL (≈ 0.69 µM)

**Q.** Which results are given for CCCc1ccc(-c2ccc3[nH]c4c5[n+](ccc4c3c2)-c2ccccc2C5=O)cc1.[Cl-]?
**A.** MIC (Salmonella enteritidis): > 200 µg/mL; MIC (Bacillus subtilis): 0.195 µg/mL; MIC (Streptococcus pneumoniae): 0.195 µg/mL; MIC (Staphylococcus aureus [6]): 1.56 µg/mL; MIC (Escherichia coli [7]): > 200 µg/mL; MIC (Pseudomonas aeruginosa): > 200 µg/mL

**Q.** For COc1ccc(-c2ccc3[nH]c4c5[n+](ccc4c3c2)-c2ccccc2C5=O)cc1.[Cl-], which MIC (Salmonella enteritidis) is on record?
**A.** > 200 µg/mL

**Q.** And the MIC (Bacillus subtilis)?
**A.** 0.195 µg/mL

**Q.** And the MIC (Streptococcus pneumoniae)?
**A.** 0.195 µg/mL

**Q.** What about the MIC (Staphylococcus aureus [1]) of the same compound?
**A.** 0.78 µg/mL

**Q.** And the MIC (Escherichia coli [2])?
**A.** 25 µg/mL

**Q.** And the MIC (Pseudomonas aeruginosa)?
**A.** > 200 µg/mL

**Q.** For COc1cccc(-c2ccc3[nH]c4c5[n+](ccc4c3c2)-c2ccccc2C5=O)c1.[Cl-], which MIC (Salmonella enteritidis) is on record?
**A.** > 200 µg/mL

**Q.** And the MIC (Bacillus subtilis)?
**A.** 0.195 µg/mL

**Q.** What about the MIC (Streptococcus pneumoniae) of the same compound?
**A.** 0.39 µg/mL

**Q.** And the MIC (Staphylococcus aureus [1])?
**A.** 0.39 µg/mL

**Q.** What about the MIC (Escherichia coli [2]) of the same compound?
**A.** 12.5 µg/mL

**Q.** What about the MIC (Pseudomonas aeruginosa) of the same compound?
**A.** > 200 µg/mL
